The values below come from patent US4035381A, “Antibacterial agents” (priority 1976, dated 1977).

The conditions of series [1]: cited from earlier work.
In series [2] the test system is Str. pneumoniae A9585. Description: Antibiotic activity in nutrient broth (MIC), Str. pneumoniae. Format: cell-based. Particulars: Streptococcus pneumoniae, 45% AAB + 5% serum + 50% broth, 10^-3 dilution of overnight culture, Ex. 1/Ex. 2 figures recalculated on penicillin content. An excerpt:
(§1) ANTIBIOTIC ACTIVITY IN NUTRIENT BROTH
(§2) *45% AAB + 5% serum + 50% broth
(§3) **Dilution of overnight broth culture
(§4) +These figures were […] on the basis that there was only 60.61%
(§5) amoxicillin in the sample; in other words, the numerical values were
(§6) lowered, i.e. improved.
(§7) ----//These figures were recalculated on the basis that there was only

Series [3] has as its system Str. pyogenes A9604. Description: Antibiotic activity in nutrient broth (MIC), Str. pyogenes. It counts as cell-based. To be noted: Streptococcus pyogenes, 45% AAB + 5% serum + 50% broth, 10^-3 dilution of overnight culture, Ex. 1/Ex. 2 figures recalculated on penicillin content.
From the text: as §1, §2, §3, §4, §5, §6, §7

Series [4] concerns S. aureus Smith A9537. Description: Antibiotic activity in nutrient broth (MIC), S. aureus Smith. It counts as cell-based. Particulars: Staphylococcus aureus, 10^-4 dilution, Ex. 1/Ex. 2 figures recalculated on penicillin content.
From the text: as §1, §3, §4, §5, §6, §7

Series [5] relates to S. aureus bx 1633 A9606. The series can be described thus: Antibiotic activity in nutrient broth (MIC), S. aureus bx 1633. It counts as cell-based. To be noted: Ex. 1/Ex. 2 figures recalculated on penicillin content.
The test system of series [6] is S. aureus Meth.-res. A15097. The series can be described thus: Antibiotic activity in nutrient broth (MIC), S. aureus Meth.-res. Format: cell-based. To be noted: Staphylococcus aureus.
For series [7], the system named is Sal. enteritidis A9531. The series can be described thus: Antibiotic activity in nutrient broth (MIC), Sal. enteritidis. To be noted: Salmonella enterica, 10^-4 dilution, Ex. 1/Ex. 2 figures recalculated on penicillin content. It counts as cell-based.
From the text: as §1, §3, §4, §5, §6, §7

Series [8] relates to E. coli Juhl A15119. Description: Antibiotic activity in nutrient broth (MIC), E. coli Juhl. Particulars: Escherichia coli, JUHLA15119, 10^-4 dilution, Ex. 1/Ex. 2 figures recalculated on penicillin content. It counts as cell-based.
From the text: as §1, §3, §4, §5, §6, §7

In series [9] the test system is E. coli A9675. Description: Antibiotic activity in nutrient broth (MIC), E. coli A9675. To be noted: Escherichia coli, 10^-4 dilution, Ex. 1/Ex. 2 figures recalculated on penicillin content. It counts as cell-based.
From the text: as §1, §3, §4, §5, §6, §7

The test system of series [10] is K. pneumoniae A9977. Description: Antibiotic activity in nutrient broth (MIC), K. pneumoniae A9977. Format: cell-based. To be noted: Klebsiella pneumoniae, 10^-4 dilution, Ex. 1/Ex. 2 figures recalculated on penicillin content.
From the text: as §1, §3, §4, §5, §6, §7

The subject of series [11] is K. pneumoniae A15130. The series can be described thus: Antibiotic activity in nutrient broth (MIC), K. pneumoniae A15130. Format: cell-based. To be noted: Klebsiella pneumoniae, nutrient broth, 10^-4 dilution, Ex. 1/Ex. 2 figures recalculated on penicillin content, read-out: MIC.
In series [12] the test system is Pr. mirabilis A9900. Description: Antibiotic activity in nutrient broth (MIC), Pr. mirabilis. To be noted: Proteus mirabilis, 10^-4 dilution, Ex. 1/Ex. 2 figures recalculated on penicillin content. It counts as cell-based.
From the text: as §1, §3, §4, §5, §6, §7

Series [13] concerns Pr. morganii A15153. Description: Antibiotic activity in nutrient broth (MIC), Pr. morganii. Format: cell-based. To be noted: Morganella morganii, 10^-4 dilution, Ex. 1/Ex. 2 figures recalculated on penicillin content.
Series [14] deals with Ps. aeruginosa A9843A. The series can be described thus: Antibiotic activity in nutrient broth (MIC), Ps. aeruginosa. It counts as cell-based. Particulars: Pseudomonas aeruginosa.
Series [15] concerns Ser. marcescens A20019. Description: Antibiotic activity in nutrient broth (MIC), Ser. marcescens. Particulars: Serratia marcescens, 10^-4 dilution, Ex. 1/Ex. 2 figures recalculated on penicillin content. It counts as cell-based.
From the text: as §1, §3, §4, §5, §6, §7

The test system of series [16] is Ent. cloacae A9656. The series can be described thus: Antibiotic activity in nutrient broth (MIC), Ent. cloacae A9656. It counts as cell-based. To be noted: Enterobacter cloacae, 10^-4 dilution, Ex. 1/Ex. 2 figures recalculated on penicillin content.
Series [17] concerns Ent. cloacae A9657. Description: Antibiotic activity in nutrient broth (MIC), Ent. cloacae A9657. Format: cell-based. Particulars: Enterobacter cloacae, 10^-4 dilution, Ex. 1/Ex. 2 figures recalculated on penicillin content.
For series [18], the system named is Ent. cloacae A9659. The series can be described thus: Antibiotic activity in nutrient broth (MIC), Ent. cloacae A9659. Format: cell-based. Particulars: Enterobacter cloacae, 10^-4 dilution, Ex. 1/Ex. 2 figures recalculated on penicillin content.
Series [19] in a line: Stability of reconstituted aqueous solution. Particulars: 250 mg./ml. of activity. Format: physicochemical.
The nature of series [20]: Hydrolysis to parent penicillin (paper strip and liquid chromatography). It counts as in vitro ADME. To be noted: 0.2 mg./ml., pH 6.5-7.0 buffer or serum.
The nature of series [21]: Bioassay. Particulars: theory 730 (Ex. 1) / 596 (Ex. 2) mcg./mg.
Series [22] is described as follows: Oral and intramuscular rat blood levels. Format: in vivo.
Series [23] can be described thus: In vitro antibacterial spectrum / activity. Format: cell-based. To be noted: vs amoxicillin (Ex. 1) or ampicillin (Ex. 2).
The nature of series [24]: Hygroscopicity. It counts as physicochemical. To be noted: solid product.
Series [25] can be described thus: Mouse blood levels after oral administration. To be noted: 100 mg./kg., tested twice, average of 6 mice each.
The nature of series [26]: Mouse blood levels after intramuscular administration. To be noted: 10 mg./kg., average of six animals, unit assumed.
[27] abbreviates: SMITHA9537, nutrient broth, no serum.

SMILES strings stand for the structures. In brackets after ≈: the same amount, converted by molar mass. Several values for one entry are separate records, joined by “and”; a condition that tells them apart may be missing. Equal values may be shown once. Where a name gives a salt, the structure may show the parent alone. Read-outs that look alike come from different tables or passages of the source. Bounds are passed on as bounds.

Take `CC1(C)S[C@@H]2[C@H](NC(=O)[C@H](N)c3ccc(O)cc3)C(=O)N2[C@H]1C(=O)O` [potassium salt]: in series [1] (250 mg./ml., room temperature), the “stable (reconstituted with water)” value is 15 min. The “precipitation from solution on standing” value in series [1] (reconstituted with water, 250 mg./ml.) is recorded as “precipitates out of solution on standing”.

As to `CC1(C)S[C@@H]2[C@H](N3C(=O)[C@@H](c4ccccc4)NC3c3ccc(S(=O)(=O)O)o3)C(=O)N2[C@H]1C(=O)O` (mixture of isomers) [Example 2, Disodium 6-[D(-)2-(±)5-Sulfo-2-furyl-5-oxo-4-phenyl-1-imidazolidinyl]penicillanate], the MIC in series [2] is 0.004 µg/mL; in [3], 0.004 µg/mL; in series [4] (SMITHA9537, +50% serum), 0.06 µg/mL; in series [4] (setting [27]) it was 0.06 µg/mL; in [5] (10^-2 dilution), more than 125 µg/mL; in series [5] (Staphylococcus aureus, BX1633A9606, 10^-3 dilution, read-out: MIC), more than 125 µg/mL. For the same molecule, the MIC in series [6] was more than 125 µg/mL; in series [7] it was 0.013 µg/mL; in series [8], 2 µg/mL; in series [9], 16 µg/mL; in series [10], 0.5 µg/mL; in series [11], 63 µg/mL. Also, the MIC in [12] is 0.13 µg/mL; in [13], more than 125 µg/mL; in series [14] it was more than 125 µg/mL; in series [15] it was 32 µg/mL; in [16] it was more than 125 µg/mL; in series [17] it was 32 µg/mL. In addition, in [18], the MIC is 63 µg/mL. Moreover, the “stable at room temperature (reconstituted aqueous solution)” value in series [19] was “at least 24 hours”. For the same molecule, the “hydrolysis in water to parent penicillin” value in series [20] (room temperature and 37° C.) was “rapidly hydrolyzes in water”. In addition, the “hydrolyzed at 0 time by liquid chromatography” value in series [20] (to ampicillin, 0 time) was 60-70%. In addition, the Bioassay in series [21] worked out at 578 µg/mg. The “Intramuscular rat blood levels compared with parent penicillin” value in series [22] (intramuscular) is “substantially equal to those of ampicillin”. Besides, the “Oral rat blood levels compared with parent penicillin” value in series [22] (oral) is “substantially equal to those of ampicillin”. In addition, in [23], the “in vitro antibacterial spectrum compared with parent penicillin” value was “substantially equivalent to that of ampicillin”. Further, the hygroscopicity result in [24] is given as “non-hygroscopic”. Besides, the Blood level was 2.8 and 5.2 in series [25] (1 hour, listed as Ex. 2, in µg/mL (unit assumed)); 1.4 and 2.2 in [25] (2 hours, listed as Ex. 2, in µg/mL (unit assumed)); 0.4 and 0.6 in series [25] (3.5 hours, listed as Ex. 2, in µg/mL (unit assumed)). Besides, the Mouse blood level in series [26] (0.25 hours) amounted to 6.3 µg/mL; in series [26] (0.5 hours) it was 3.7 µg/mL; in series [26] (1 hour), 1.3 µg/mL; in series [26] (1.5 hours), 0.6 µg/mL.

`CC1(C)S[C@@H]2[C@H](N3C(=O)[C@@H](c4ccccc4)NC3(C)C)C(=O)N2[C@H]1C(=O)O` [hetacillin]: the “stability in aqueous solution compared with parent penicillins” value in series [1] (as sodium salts) is on record as “somewhat more stable”.

Turning to `CC1(C)S[C@@H]2[C@H](NC(=O)[C@H](N)c3ccccc3)C(=O)N2[C@H]1C(=O)O` [Ampicillin, D(-)-α-aminobenzyl-penicillin, reference compound], the MIC in [2] was 0.008 µg/mL; in [3] it was 0.008 µg/mL; in series [4] (SMITHA9537, +50% serum) it was 0.13 µg/mL (≈ 0.372 µM); in series [4] (setting [27]), 0.13 µg/mL (≈ 0.372 µM); in series [7] it was 0.013 µg/mL (≈ 0.0372 µM); in series [8], 2 µg/mL (≈ 5.72 µM). Further, the MIC in [9] is 16 µg/mL (≈ 45.8 µM); in series [10], 0.25 µg/mL (≈ 0.715 µM); in series [12] it was 0.25 µg/mL (≈ 0.715 µM); in series [15], 32 µg/mL (≈ 91.6 µM); in series [17] it was 32 µg/mL (≈ 91.6 µM); in series [18], 63 µg/mL (≈ 180 µM).

On to `CC1(C)S[C@@H]2[C@H](NC(=O)[C@H](N)c3ccc(O)cc3)C(=O)N2[C@H]1C(=O)O` [Amoxicillin, D(-)-α-amino-p-hydroxybenzylpenicillin, reference compound], for which the MIC is not above 0.002 µg/mL in series [2]; not above 0.002 µg/mL in series [3]; 0.008 µg/mL (≈ 0.0219 µM) in [4] (SMITHA9537, +50% serum); 0.008 µg/mL (≈ 0.0219 µM) in [4] (setting [27]); 0.008 µg/mL (≈ 0.0219 µM) in series [7]; 0.5 µg/mL (≈ 1.37 µM) in series [8]. For the same molecule, the minimal inhibitory concentration (MIC) was 8 µg/mL (≈ 21.9 µM) in [9], not above 0.016 µg/mL in series [12], 16 µg/mL (≈ 43.8 µM) in series [15] and 63 µg/mL (≈ 172 µM) in series [17]. Further, the Blood level is 7.9 and 13.9 in series [25] (0.5 hours, in µg/mL (unit assumed)); 7.4 and 12.4 in [25] (1 hour, in µg/mL (unit assumed)); 4.6 and 5.8 in [25] (2 hours, in µg/mL (unit assumed)); 1.5 and 0.8 in series [25] (3.5 hours, in µg/mL (unit assumed)). Also, the Mouse blood level in series [26] (0.25 hours) stood at 7.7 µg/mL; in [26] (0.5 hours) it was 4.3 µg/mL; in series [26] (1 hour) it was 1.9 µg/mL; in series [26] (1.5 hours), 0.6 µg/mL.

The MIC is the least concentration at which growth counts as inhibited.
